Data reported in PubChem BioAssay (NCI).
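48-hour exposure; five concentrations; linearly interpolated endpoints. GI50 is the concentration that inhibits growth by half. Definition used: TGI = concentration required for complete inhibition of growth.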

Legend:
Assay in all cases: DTP human tumour cell line panel, 48 h
CCRF-CEM leukemia = test system: CCRF-CEM leukemia
DU-145 prostate = test system: DU-145 prostate
IGROV1 ovarian = test system: IGROV1 ovarian
MCF7 breast = test system: MCF7 breast
MDA-MB-231 breast = test system: MDA-MB-231 breast
OVCAR-3 ovarian = test system: OVCAR-3 ovarian
SF-268 CNS = test system: SF-268 CNS
SF-295 CNS = test system: SF-295 CNS
SK-MEL-2 melanoma = test system: SK-MEL-2 melanoma
SNB-19 CNS = test system: SNB-19 CNS

SMILES | GI50 (CCRF-CEM leukemia) [µM] | TGI (CCRF-CEM leukemia) [µM] | GI50 (DU-145 prostate) [µM] | TGI (DU-145 prostate) [µM] | GI50 (IGROV1 ovarian) [µM] | TGI (IGROV1 ovarian) [µM] | GI50 (MCF7 breast) [µM] | TGI (MCF7 breast) [µM] | GI50 (MDA-MB-231 breast) [µM] | TGI (MDA-MB-231 breast) [µM] | GI50 (OVCAR-3 ovarian) [µM] | TGI (OVCAR-3 ovarian) [µM] | GI50 (SF-268 CNS) [µM] | TGI (SF-268 CNS) [µM] | GI50 (SF-295 CNS) [µM] | TGI (SF-295 CNS) [µM] | GI50 (SK-MEL-2 melanoma) [µM] | TGI (SK-MEL-2 melanoma) [µM] | GI50 (SNB-19 CNS) [µM] | TGI (SNB-19 CNS) [µM]
COc1cc(NS(=O)(=O)c2ccc(-c3cnc(C4CC4)o3)cc2)ccc1F | 0.326 | > 100 | 0.765 | 58.9 | 0.439 | 24.6 | 0.201 | 22.9 | 1.36 | 19.5 | 0.437 | 16 | 2.65 | 30.7 | 0.205 | 1.46 | 0.706 | 23.6 | 0.441 | 24.5
Cc1ccc(C(=O)Nc2ccc(CN3CCN(C)CC3)c(C(F)(F)F)c2)cc1C#Cc1cnc(N)c2ccccc12 | 0.622 | 3.04 | 0.167 | 0.861 | 0.103 | 0.814 | 0.799 | 1.61 | 0.519 | 1.22 | 0.578 | 1.35 | 0.403 | 1.26 | 0.785 | 1.69 | 0.367 | 1.55 | 0.769 | 1.47
CC[CH2][Sn]([Cl])([Cl])[CH2]CC.Oc1ccccc1C=NCCN=Cc1ccccc1O | 2.16 | 41.8 | 12.1 | 24.6 | 5.98 | 27 | 3.12 | 15.8 | 3.96 | 15.8 | 9.29 | 21.4 | 3.63 | 15.5 | 14.7 | 32.7 | – | – | 12.1 | 25
COc1ccc(-n2cc(-c3cc(OC)c(OC)c(OC)c3)[nH]c2=O)cc1Cl | > 100 | > 100 | – | – | > 100 | > 100 | > 100 | > 100 | 34.9 | > 100 | > 100 | > 100 | 40.8 | > 100 | 48.9 | > 100 | > 100 | > 100 | 42.6 | > 100
CNc1nc(N)c(N=O)c(Nc2ccc(Br)cc2)n1 | – | > 100 | – | > 100 | – | > 100 | – | > 100 | – | > 100 | – | > 100 | – | > 100 | – | > 100 | – | > 100 | – | > 100
COc1cc2c(c(OC)c1OC)C(=O)[C@@H]1c3ccc([N+](=O)[O-])cc3C(=O)N(CCCBr)[C@H]21 | – | – | 14.6 | 53.2 | 3.41 | 21.3 | 4.71 | > 100 | 2.99 | 25.3 | 2.02 | 12.4 | 8.6 | 41.6 | 2.04 | 19.7 | 19.7 | 59.8 | 22 | > 100
COC(=O)C12C3C4C1C1C2C3C41NC(=O)c1csc([C@@H](C[C@H](C(C)C)N(C)C(=O)[C@@H](NC(=O)[C@H]2CCCCN2C)C2CC2)OC(C)=O)n1 (stereo partly specified) | 0.00732 | > 33.3 | 0.00671 | > 33.3 | 0.0226 | > 33.3 | 0.00606 | > 33.3 | 0.0414 | 10.9 | 0.0117 | 0.86 | 0.0356 | > 33.3 | 0.0476 | > 33.3 | 0.11 | > 33.3 | 0.077 | > 33.3
COC(=O)[C@H](Cc1c[nH]c2ccccc12)NC(=O)[C@@H](OC)[C@@H]1Cc2cc3cc(OC4CC(OC5CC(O)C(O)C(C)O5)C(O)C(C)O4)c(C)c(O)c3c(O)c2C(=O)[C@H]1OC1CC(OC2CC(OC3CC(C)(O)C(O)C(C)O3)C(O)C(C)O2)C(O)C(C)O1 (stereo partly specified) | 0.0064 | > 6.28 | 0.00713 | > 16.5 | 0.00743 | > 7.79 | 0.00391 | 2.55 | 0.00975 | 0.603 | 0.00701 | 0.112 | 0.00891 | 1.78 | 0.0112 | 3.21 | 0.0049 | 0.0145 | 0.00777 | > 16.5
CO[C@H]1C=C[C@@]23c4cc5c(cc4CO[C@]2(O)CN(C)[C@H]3C1)OCO5 | – | > 100 | – | > 100 | – | > 100 | – | > 100 | – | > 100 | – | > 100 | – | > 100 | – | > 100 | – | > 100 | – | > 100
C=C[C@H]1C[C@@H]2C[C@@H]3[C@H]4C/C=C\C(=O)NCCCC5NC(=O)C(=C(O)/C=C/[C@@H]4CC(=O)[C@H]3[C@@H]2[C@H]1C)C5=O (stereo partly specified) | – | – | 0.191 | 0.345 | 0.212 | 0.434 | 1.24 | 2.8 | 0.232 | 0.537 | 0.183 | 0.334 | 0.172 | 0.334 | – | – | 1.08 | 2.58 | 0.286 | 1
COc1ccccc1Cn1cc2c(c1-c1ccccc1)CCc1cnoc1-2 | 2.85 | > 100 | 2.76 | 12.1 | 3.6 | > 100 | 2.33 | > 100 | 3.96 | > 100 | 1.23 | 4.32 | 8.34 | > 100 | 1.09 | 9.52 | 1.83 | 9.97 | 5.4 | > 100
COc1ccc2nc3cc(Cl)ccc3c(NCCN)c2c1 | 1.42 | 5.39 | 1.53 | 2.92 | – | – | – | – | – | – | – | – | – | – | – | – | 14.5 | 31.2 | – | –
CCN(CC)CCCC(C)Nc1cnc(C(=O)Nc2cccc3ccc(OC)nc23)cn1 (stereo unspecified) | 2.74 | 8.11 | 4.24 | 15.3 | 2.09 | 4.91 | 1.67 | 3.41 | 1.73 | 3.45 | 2.24 | 5.24 | 11.2 | 25.8 | 15 | 29.9 | 1.85 | 3.68 | 3.11 | 10.9
O=C1OC(c2ccco2)=N/C1=C\c1cccc([N+](=O)[O-])c1 | – | > 100 | – | > 100 | – | > 100 | – | > 100 | – | > 100 | – | > 100 | – | > 100 | – | > 100 | – | > 100 | – | > 100
CSc1nc2cc(S(=O)(=O)N3CCCCC3)ccc2s1 | – | > 100 | – | > 100 | – | > 100 | – | > 100 | – | > 100 | – | > 100 | – | > 100 | – | > 100 | – | > 100 | – | > 100
COc1cc2c3c(n(CCCCOC(=O)C(Cl)(Cl)Cl)c(=O)c2cc1OC)-c1cc2c(cc1C3=O)OCO2 | 10.5 | > 100 | 20.4 | > 100 | 14.4 | > 100 | 11.5 | > 100 | 50.3 | > 100 | > 100 | > 100 | 30 | > 100 | 8.71 | > 100 | > 100 | > 100 | > 100 | > 100
COc1ccc(-c2nnc(COc3ccc(NC(=O)Nc4ccc(Cl)c(C(F)(F)F)c4)cc3F)o2)cc1 | 3.06 | 40 | 3.1 | 11.1 | 4.77 | 26.4 | 3.03 | 14.3 | 1.91 | 8.72 | 3.02 | 10.5 | 6.01 | 36.1 | 2.48 | 9.06 | 3.61 | 9.87 | 4.02 | 24.2
Cc1ccc(NC(=O)NCCCOc2ccc(N3C(N)=NC(N)=NC3(C)C)cc2Cl)cc1S(=O)(=O)F | 9.69 | > 100 | 6.04 | > 100 | 0.525 | > 100 | 4.93 | > 100 | 11.4 | > 100 | 8.6 | > 100 | 0.916 | > 100 | 26.5 | > 100 | – | – | 6.04 | > 100
CCC(=O)c1c(C(F)(F)F)n([O-])c2ccc(C)cc2[n+]1=O | 18.2 | > 50 | 5.99 | 16.6 | – | – | 6.29 | 40.5 | 12.1 | 37.9 | 3.88 | 15 | > 50 | > 50 | 3.93 | 15.8 | 8.35 | > 50 | 15.2 | > 50
CCc1oc2ccccc2c1C(=O)c1cc(I)c(O)c(I)c1 | 2.05 | 15.4 | 2.37 | 7.4 | – | – | 4.02 | 14.7 | 5.64 | 20.8 | 2.04 | 5.12 | 2.89 | 15.2 | 2.05 | 7.65 | 7.42 | 28 | 5.19 | 18.9
COc1cccc(N2C(=O)[C@H]3CC(C)c4c([nH]c5ccccc45)[C@H]3C2=O)c1 (stereo partly specified) | – | > 100 | – | – | – | > 100 | – | – | – | – | – | > 100 | – | > 100 | – | 67.6 | – | > 100 | – | > 100
O=C(/C(=C/c1cccc([N+](=O)[O-])c1)c1ccccc1)c1ccccc1 | 2.17 | 27.8 | 4.22 | 14.7 | 3.38 | 27.8 | 3.34 | 13.3 | 4.01 | > 100 | 3.66 | 10.9 | 3.9 | 15.5 | 4.08 | 20.2 | – | – | 5.15 | 19.7
CCCCCCC(=O)C/C(=N/NC(N)=S)C(=O)NC1C2CC3CC(C2)CC1C3 (stereo unspecified) | – | > 100 | – | – | – | > 100 | – | – | – | – | – | > 100 | – | > 100 | – | > 100 | – | > 100 | – | > 100
CC[C@H](C)[C@H]1O[C@]2(C=C[C@@H]1C)C[C@@H]1C[C@@H](C/C=C(\C)[C@@H](O[C@H]3C[C@H](OC)[C@@H](O[C@H]4C[C@H](OC)[C@@H](NC)[C@H](C)O4)[C@H](C)O3)[C@@H](C)/C=C/C=C3\CO[C@@H]4[C@H](O)C(C)=C[C@@H](C(=O)O1)[C@]34O)O2 | 1.87 | 4.02 | – | – | 3.06 | 12 | 1.85 | 4.34 | 2 | 4.4 | 3.44 | 11.8 | 3.9 | 16 | 2.6 | 8.17 | 2.54 | 7.07 | 4.27 | 16.9
Cc1nc2ccccc2c(=O)n1-c1ccccc1F | – | > 100 | – | – | – | > 100 | – | – | – | – | – | > 100 | – | > 100 | – | > 100 | – | > 100 | – | > 100
CCCCOC(=O)NC(=O)c1cn(C2CCCCC2)c(=O)[nH]c1=O | – | > 100 | – | – | – | > 100 | – | – | – | – | – | > 100 | – | > 100 | – | > 100 | – | > 100 | – | 69.3
C/C(=C1/CCC/C(=C(/C)c2ccccc2)C1=O)c1ccccc1 | – | 49.8 | – | – | – | > 100 | – | – | – | – | – | > 100 | – | > 100 | – | > 100 | – | 38.7 | – | > 100
CC(C)N1CN(C(C(=O)N[C@@H]2C(=O)N3C2SC(C)(C)C3C(=O)O)c2ccccc2)CSC1=S (stereo partly specified) | – | > 100 | – | – | – | > 100 | – | – | – | – | – | > 100 | – | > 100 | – | > 100 | – | > 100 | – | > 100
COc1ccc(/C=C\c2cc(OC)c(OC)c(OC)c2)cc1OC(=O)NCCN(C)C | – | – | – | 0.043 | 0.00139 | > 100 | – | > 100 | – | 0.023 | – | 0.00347 | 0.0336 | – | – | – | – | – | – | > 100
